# In patent US20250360235A1, “RADI[…] AND METHOD FOR RADIOLABELLING” (Telix Innovations SA, priority 2024, published 2025):
# Columns and labels:
# Type in all cases: physicochemical
# [1] = Radiochemical purity by HPLC over time after radiolabelling
# Protocol: (§1) Table 1 to Table 5 show the results of various radiolabelling experiments on radiochemical purity and the chelation yield. The radiolabelling experiments in the tables are carried out as described in: • Example 1 for when the gallium-68 source is GE Liquid target generator and EZAG GalliaPharm generator; • Example 2 for when the gallium-68 source is IRE Galli Eo generator; • Example 3 for when the gallium-68 source is GE solid target generator;
# (§2) However, the experiments were carried out with the amount of ascorbic acid as indicated in the Tables 1 to 5, and the activity as indicated in the Tables 1 to 5. Radiochemical purities were measured at various times (T0, T1, T4, T6) after the radiolabelled experiments have been conducted.
# (§3) The kits of Example 1, Example 2 or Example 3, with amounts of ascorbic acid as set out in Table 7 were used in the experiments for the ascorbic acid bracketing matrix. Three strengths of [^68Ga]Ga-PSMA-11 will be tested, i.e. 50 mCi/ml, 7 mCi/ml and 1 mCi/ml. Radiochemical purity was determined at different time points (TO, T1, T4 or T6), as set out in Table 7.
# [2] = Visual inspection of [68Ga]PSMA-11 solution (acceptance: colourless to slightly yellow solution, free from visible particles); design: key: C = all results conform to specifications
# Protocol: as §1, §2, §3
# [3] = as above; design: key: C = conforms to specifications
# Protocol: as §1, §2, §3
# [4] = validation batches, 25 mg ascorbic acid, 51.6-62.7 mCi, 4.56-5.88 mCi/mL, IRE Galli Eo, n=3, T0
# [5] = validation batches, 25 mg ascorbic acid, 51.6-62.7 mCi, 4.56-5.88 mCi/mL, IRE Galli Eo, n=3, T4 (4 h)
# [6] = validation batches, 25 mg ascorbic acid, 53.3-74.4 mCi, 5.03-6.92 mCi/mL, GE Liquid target, n=3, T0
# [7] = validation batches, 25 mg ascorbic acid, 53.3-74.4 mCi, 5.03-6.92 mCi/mL, GE Liquid target, n=3, T4 (4 h)
# [8] = validation batches, 25 mg ascorbic acid, 65.0-66.4 mCi, 5.74-6.15 mCi/mL, EZAG GalliaPharm, n=3, T0
# [9] = validation batches, 25 mg ascorbic acid, 65.0-66.4 mCi, 5.74-6.15 mCi/mL, EZAG GalliaPharm, n=3, T4 (4 h)
# [10] = validation batches, 25 mg ascorbic acid, 537-551 mCi, 50.2-51.6 mCi/mL, GE Solid Target, n=3, T0
# [11] = validation batches, 25 mg ascorbic acid, 537-551 mCi, 50.2-51.6 mCi/mL, GE Solid Target, n=3, T6 (6 h)
# [12] = validation batches, 25 mg ascorbic acid, 555-564 mCi, 51.1-52.7 mCi/mL, ARTMS Solid Target, n=3, T0
# [13] = validation batches, 25 mg ascorbic acid, 555-564 mCi, 51.1-52.7 mCi/mL, ARTMS Solid Target, n=3, T6 (6 h)
structure (smiles),measurement,setting,value
"O=C([O-])CN(CCN(CC(=O)[O-])Cc1cc(CCC(=O)NCCCCCC(=O)NCCCC[C@H](NC(=O)N[C@@H](CCC(=O)O)C(=O)O)C(=O)O)ccc1[O-])Cc1cc(CCC(=O)O)ccc1[O-].[68Ga+3].[OH3+] [[^68Ga]PSMA-11, gallium-68 radiolabelled Glu-urea-Lys-HBED-CC (gozetotide or PSMA-11)]",Radiochemical Purity (HPLC) Ga-68 PSMA-11 (%),"[1]; bracketing ~7 mCi/mL, 25 mg ascorbic acid, 51.6-74.4 mCi, 4.56-6.92 mCi/mL, 3 × GE Liquid Target, 3 × IRE Galli Eo, 3 × EZAG GalliaPharm, average of 9, T4 (4 h)",100%
same,Radiochemical Purity (HPLC) Ga-68 PSMA-11 (%),"[1]; bracketing ~7 mCi/mL, 31.25 mg ascorbic acid, 61.5-62.0 mCi, 5.85-5.88 mCi/mL, EZAG GalliaPharm, average of 2, T0",100%
same,Radiochemical Purity (HPLC) Ga-68 PSMA-11 (%),"[1]; bracketing ~7 mCi/mL, 31.25 mg ascorbic acid, 61.5-62.0 mCi, 5.85-5.88 mCi/mL, EZAG GalliaPharm, average of 2, T4 (4 h)",100%
same,Radiochemical Purity (HPLC) Ga-68 PSMA-11 (%),"[1]; bracketing ~50 mCi/mL, 20 mg ascorbic acid, 514-544 mCi, 48.3-51.9 mCi/mL, GE Solid Target, average of 2, T0",100%
same,Radiochemical Purity (HPLC) Ga-68 PSMA-11 (%),"[1]; bracketing ~50 mCi/mL, 20 mg ascorbic acid, 514-544 mCi, 48.3-51.9 mCi/mL, GE Solid Target, average of 2, T6 (6 h)",100%
same,Radiochemical Purity (HPLC) Ga-68 PSMA-11 (%),"[1]; bracketing ~50 mCi/mL, 25 mg ascorbic acid, 537-551 mCi, 50.2-51.6 mCi/mL, GE Solid Target, average of 3, T0",100%
same,Radiochemical Purity (HPLC) Ga-68 PSMA-11 (%),"[1]; bracketing ~50 mCi/mL, 25 mg ascorbic acid, 537-551 mCi, 50.2-51.6 mCi/mL, GE Solid Target, average of 3, T6 (6 h)",100%
same,Radiochemical Purity (HPLC) Ga-68 PSMA-11 (%),"[1]; bracketing ~50 mCi/mL, 31.25 mg ascorbic acid, 500-544 mCi, 48.1-51.7 mCi/mL, GE Solid Target, average of 2, T0",100%
same,Radiochemical Purity (HPLC) Ga-68 PSMA-11 (%),"[1]; bracketing ~50 mCi/mL, 31.25 mg ascorbic acid, 500-544 mCi, 48.1-51.7 mCi/mL, GE Solid Target, average of 2, T6 (6 h)",100%
same,Radiochemical Purity (HPLC) Ga-68 PSMA-11 (%),"[1]; validation batches, 25 mg ascorbic acid, 51.6-62.7 mCi, 4.56-5.88 mCi/mL, IRE Galli Eo, average of 3, T0",100%
same,Radiochemical Purity (HPLC) Ga-68 PSMA-11 (%),"[1]; validation batches, 25 mg ascorbic acid, 51.6-62.7 mCi, 4.56-5.88 mCi/mL, IRE Galli Eo, average of 3, T4 (4 h)",100%
same,Radiochemical Purity (HPLC) Ga-68 PSMA-11 (%),[1]; [4],C (C = all results conform to specifications)
same,Radiochemical Purity (HPLC) Ga-68 PSMA-11 (%),[1]; [5],C (C = all results conform to specifications)
same,Radiochemical Purity (HPLC) Ga-68 PSMA-11 (%),"[1]; validation batches, 25 mg ascorbic acid, 53.3-74.4 mCi, 5.03-6.92 mCi/mL, GE Liquid target, average of 3, T0",99%
same,Radiochemical Purity (HPLC) Ga-68 PSMA-11 (%),"[1]; validation batches, 25 mg ascorbic acid, 53.3-74.4 mCi, 5.03-6.92 mCi/mL, GE Liquid target, average of 3, T4 (4 h)",100%
same,Radiochemical Purity (HPLC) Ga-68 PSMA-11 (%),[1]; [6],C (C = all results conform to specifications)
same,Radiochemical Purity (HPLC) Ga-68 PSMA-11 (%),[1]; [7],C (C = all results conform to specifications)
same,Radiochemical Purity (HPLC) Ga-68 PSMA-11 (%),"[1]; validation batches, 25 mg ascorbic acid, 65.0-66.4 mCi, 5.74-6.15 mCi/mL, EZAG GalliaPharm, average of 3, T0",100%
same,Radiochemical Purity (HPLC) Ga-68 PSMA-11 (%),"[1]; validation batches, 25 mg ascorbic acid, 65.0-66.4 mCi, 5.74-6.15 mCi/mL, EZAG GalliaPharm, average of 3, T4 (4 h)",100%
same,Radiochemical Purity (HPLC) Ga-68 PSMA-11 (%),[1]; [8],C (C = all results conform to specifications)
same,Radiochemical Purity (HPLC) Ga-68 PSMA-11 (%),[1]; [9],C (C = all results conform to specifications)
same,Radiochemical Purity (HPLC) Ga-68 PSMA-11,"[1]; validation batches, 25 mg ascorbic acid, 537-551 mCi, 50.2-51.6 mCi/mL, GE Solid Target, average of 3, T0",100%
same,Radiochemical Purity (HPLC) Ga-68 PSMA-11,"[1]; validation batches, 25 mg ascorbic acid, 537-551 mCi, 50.2-51.6 mCi/mL, GE Solid Target, average of 3, T6 (6 h)",100%
same,Radiochemical Purity (HPLC) Ga-68 PSMA-11,[1]; [10],C (C = all results conform to specifications)
same,Radiochemical Purity (HPLC) Ga-68 PSMA-11,[1]; [11],C (C = all results conform to specifications)
same,Radiochemical Purity (HPLC) Ga-68 PSMA-11,"[1]; validation batches, 25 mg ascorbic acid, 555-564 mCi, 51.1-52.7 mCi/mL, ARTMS Solid Target, average of 3, T0",99%
same,Radiochemical Purity (HPLC) Ga-68 PSMA-11,"[1]; validation batches, 25 mg ascorbic acid, 555-564 mCi, 51.1-52.7 mCi/mL, ARTMS Solid Target, average of 3, T6 (6 h)",100%
same,Radiochemical Purity (HPLC) Ga-68 PSMA-11,[1]; [12],C (C = all results conform to specifications)
same,Radiochemical Purity (HPLC) Ga-68 PSMA-11,[1]; [13],C (C = all results conform to specifications)
same,Visual Inspection,"[2]; 25 mg ascorbic acid, 10.2 mCi, 0.97 mCi/mL, IRE Galli Eo, n=1, T0",C
same,Visual Inspection,"[2]; 25 mg ascorbic acid, 10.2 mCi, 0.97 mCi/mL, IRE Galli Eo, n=1, T1 (1 h)",C
same,Visual Inspection,"[2]; 25 mg ascorbic acid, 19.5-20.0 mCi, 1.85-1.90 mCi/mL, EZAG GalliaPharm, n=2, T0",C
same,Visual Inspection,"[2]; 25 mg ascorbic acid, 19.5-20.0 mCi, 1.85-1.90 mCi/mL, EZAG GalliaPharm, n=2, T1 (1 h)",C
same,Visual Inspection,"[2]; 25 mg ascorbic acid, 23.3-24 mCi, 2.22-2.28 mCi/mL, IRE Galli Eo, n=2, T0",C
same,Visual Inspection,"[2]; 25 mg ascorbic acid, 23.3-24 mCi, 2.22-2.28 mCi/mL, IRE Galli Eo, n=2, T4 (4 h)",C
same,Visual Inspection,"[2]; 25 mg ascorbic acid, 46.0-46.1 mCi, 4.38-4.39 mCi/mL, EZAG GalliaPharm, n=2, T0",C
same,Visual Inspection,"[2]; 25 mg ascorbic acid, 46.0-46.1 mCi, 4.38-4.39 mCi/mL, EZAG GalliaPharm, n=2, T4 (4 h)",C
same,Visual Inspection,"[2]; control, 0 mg ascorbic acid, 70 mCi, GE Solid Target, n=1, T0",C
same,Visual Inspection,"[2]; control, 0 mg ascorbic acid, 70 mCi, GE Solid Target, n=1, T4 (4 h)",C
same,Visual Inspection,[2]; [4],C
same,Visual Inspection,[2]; [5],C
same,Visual Inspection,[2]; [6],C
same,Visual Inspection,[2]; [7],C
same,Visual Inspection,[2]; [8],C
same,Visual Inspection,[2]; [9],C
same,Visual Inspection,[2]; [10],C
same,Visual Inspection,[2]; [11],C
same,Visual Inspection,[2]; [12],C
same,Visual Inspection,[2]; [13],C
same,Visual Inspection,"[3]; 1 mg ascorbic acid, 58.7-71.1 mCi, 7.47-8.99 mCi/mL, GE Liquid target, n=3, T0",C
same,Visual Inspection,"[3]; 1 mg ascorbic acid, 58.7-71.1 mCi, 7.47-8.99 mCi/mL, GE Liquid target, n=3, T4 (4 h)",C
same,Visual Inspection,"[3]; 2.5 mg ascorbic acid, 49.9-76.9 mCi, 6.31-9.72 mCi/mL, GE Liquid target, n=3, T0",C
same,Visual Inspection,"[3]; 2.5 mg ascorbic acid, 49.9-76.9 mCi, 6.31-9.72 mCi/mL, GE Liquid target, n=3, T4 (4 h)",C
same,Visual Inspection,"[3]; 5 mg ascorbic acid, 60-69.9 mCi, 7.61-8.81 mCi/mL, 3 × GE Liquid Target, 3 × EZAG GalliaPharm, n=6, T0",C
same,Visual Inspection,"[3]; 5 mg ascorbic acid, 60-69.9 mCi, 7.61-8.81 mCi/mL, 3 × GE Liquid Target, 3 × EZAG GalliaPharm, n=6, T4 (4 h)",C
same,Visual Inspection,"[3]; 10 mg ascorbic acid, 458-500 mCi, 43.4-47.3 mCi/mL, GE Solid Target, n=3, T0",C
same,Visual Inspection,"[3]; 10 mg ascorbic acid, 458-500 mCi, 43.4-47.3 mCi/mL, GE Solid Target, n=3, T4 (4 h)",C
same,Visual Inspection,"[3]; 10 mg ascorbic acid, 514-520 mCi, 49.0-66.1 mCi/mL, GE Solid Target, n=3, T0",C
same,Visual Inspection,"[3]; 10 mg ascorbic acid, 514-520 mCi, 49.0-66.1 mCi/mL, GE Solid Target, n=3, T6 (6 h)",C
same,Visual Inspection,"[3]; 15 mg ascorbic acid, 10.0-18.4 mCi, 0.95-1.77 mCi/mL, 1 × EZAG GalliaPharm, 2 × IRE Galli Eo, n=3, T0",C
same,Visual Inspection,"[3]; 15 mg ascorbic acid, 10.0-18.4 mCi, 0.95-1.77 mCi/mL, 1 × EZAG GalliaPharm, 2 × IRE Galli Eo, n=3, T1 (1 h)",C
same,Visual Inspection,"[3]; 15 mg ascorbic acid, 23.7-47.6 mCi, 2.26-4.53 mCi/mL, 1 × EZAG GalliaPharm, 2 × IRE Galli Eo, n=3, T0",C
same,Visual Inspection,"[3]; 15 mg ascorbic acid, 23.7-47.6 mCi, 2.26-4.53 mCi/mL, 1 × EZAG GalliaPharm, 2 × IRE Galli Eo, n=3, T4 (4 h)",C
same,Visual Inspection,"[3]; 20 mg ascorbic acid, 514-544 mCi, 48.3-51.9 mCi/mL, GE Solid Target, n=2, T0",C
same,Visual Inspection,"[3]; 20 mg ascorbic acid, 514-544 mCi, 48.3-51.9 mCi/mL, GE Solid Target, n=2, T6 (6 h)",C
same,Visual Inspection,"[3]; 50 mg ascorbic acid, 560 mCi, 71.1 mCi/mL, GE Solid Target, n=1, T0",C
same,Visual Inspection,"[3]; 50 mg ascorbic acid, 560 mCi, 71.1 mCi/mL, GE Solid Target, n=1, T6 (6 h)",C
